The test addresses T1, γ-secretase (Homo sapiens, UniProt P49768).
T1 construct: endogenous in cells; host or cells: SKNBE2 cells carrying APP 695 wild type
The test is described as follows: Screening for γ-secretase-modulating activity (Aβ42 lowering) in SKNBE2 cells carrying the APP 695-wild type. The format is cell-based. The settings on record: SKNBE2 cells carrying APP 695-wild type; for EC50: read-out: Aβ 42 lowering EC50; for inhibition at 1 µM: read-out: Aβ % inhibition @ 1 uM. The protocol: Screening was carried out using SKNBE2 cells carrying the APP 695-wild type, grown in DMEM/NUT-mix F12 (HAM) provided by Gibco (cat no. 31330-38) containing 5% Serum/Fe supplemented with 1% non-essential amino acids.
Cells were grown to near confluency.
The screening was performed using the assay as described in Citron et al (1997) Nature Medicine 3: 67.

As a reminder, the EC50 is the concentration at which the effect is half-maximal. By inhibition is commonly meant the drop in the measured response relative to a control, in per cent.

Take `CC(C)CC(C(=O)O)c1cc(CCc2ccc(-c3ccccc3)cc2)cc(-c2ccc(C(F)(F)F)cc2)c1` (centres unmarked) [Compound 24, 2-[5-(2-Biphenyl-4-yl-ethyl)-4′-trifluoromethyl-biphenyl-3-yl]-4-methyl-pentanoic acid]: the EC50 turned out to be 210 nM.

For the compound `CC(C)CC(C(=O)O)c1cc(Cc2cnccc2Cl)cc(-c2ccc(C(F)(F)F)cc2)c1` (centres unmarked) [Compound 4, 2-[5-(4-Chloro-pyridin-3-ylmethyl)-4′-trifluoromethyl-biphenyl-3-yl]-4-methyl-pentanoic acid], the EC50 was 2750 nM. Turning to `CC(C)CC(C(=O)O)c1cc(CCc2cc(F)cc(F)c2)cc(-c2ccc(C(F)(F)F)cc2)c1` (centres unmarked) [Compound 29, 2-{5-[2-(3,5-Difluoro-phenyl)-ethyl]-4′-trifluoromethyl-biphenyl-3-yl}-4-methyl-pentanoic acid], the EC50 is 410 nM.

Turning to `CC(C)CC(C(=O)O)c1cc(/C=C/c2ccc(F)cc2)cc(-c2ccc(C(F)(F)F)cc2)c1` (centres unmarked) [Compound 18, 2-{5-[2-(4-Fluoro-phenyl)-vinyl]-4′-trifluoromethyl-biphenyl-3-yl}-4-methyl-pentanoic acid], the EC50 turned out to be 390 nM. On the same count and under the same terms, under `CC(C)CC(C(=O)O)c1cc(CCc2ccc(F)cc2)cc(-c2ccc(C(F)(F)F)cc2)c1` (centres unmarked) [Compound 27, 2-{5-[2-(4-Fluoro-phenyl)-ethyl]-4′-trifluoromethyl-biphenyl-3-yl}-4-methyl-pentanoic acid] stands 580 nM. As to `CC(C)CC(C(=O)O)c1cc(C(=O)c2cc(F)cc(F)c2)cc(-c2ccc(C(F)(F)F)cc2)c1` (centres unmarked) [Compound 7, 2-[5-(3,5-Difluoro-benzoyl)-4′-trifluoromethyl-biphenyl-3-yl]-4-methyl-pentanoic acid], the inhibition at 1 µM turned out to be 50%. As to `CC(C)CC(C(=O)O)c1cc(Cc2cccc(C(F)(F)F)c2)cc(-c2ccc(C(F)(F)F)cc2)c1` (centres unmarked) [Compound 5, 4-Methyl-2-[4′-trifluoromethyl-5-(3-trifluoromethyl-benzyl)-biphenyl-3-yl]-pentanoic acid], the EC50 was 1130 nM. Still for that read-out and setting: under `CC(C)CC(C(=O)O)c1cc(/C=C/c2cc(F)cc(F)c2)cc(-c2ccc(C(F)(F)F)cc2)c1` (centres unmarked) [Compound 19, 2-{5-[2-(3,5-Difluoro-phenyl)-vinyl]-4′-trifluoromethyl-biphenyl-3-yl}-4-methyl-pentanoic acid] stands 450 nM; under `CC(C)CC(C(=O)O)c1cc(CCc2ccc(Cl)cc2)cc(-c2ccc(C(F)(F)F)cc2)c1` (centres unmarked) [Compound 26, 2-{5-[2-(4-Chloro-phenyl)-ethyl]-4′-trifluoromethyl-biphenyl-3-yl}-4-methyl-pentanoic acid], 740 nM. As to `CC(C)CC(C(=O)O)c1cc(-c2ccc(C(F)(F)F)cc2)cc(C(O)c2cc(F)cc(F)c2)c1` (centres unmarked) [Compound 9, 2-{5-[(3,5-Difluoro-phenyl)-hydroxy-methyl]-4′-trifluoromethyl-biphenyl-3-yl}-4-methyl-pentanoic acid], the inhibition at 1 µM amounted to 14%. For the compound `CC(C)CC(C(=O)O)c1cc(C#Cc2cc(C(F)(F)F)cc(C(F)(F)F)c2)cc(-c2ccc(C(F)(F)F)cc2)c1` (centres unmarked) [Compound 13, 2-[5-(3,5-Bis-trifluoromethyl-phenylethynyl)-4′-trifluoromethyl-biphenyl-3-yl]-4-methyl-pentanoic acid], the inhibition at 1 µM stood at 28%. In the case of `CC(C)CC(C(=O)O)c1cc(/C=C\c2ccc(C(F)(F)F)cc2)cc(-c2ccc(C(F)(F)F)cc2)c1` (centres unmarked) [Compound 22, 4-Methyl-2-{4′-trifluoromethyl-5-[2-(4-trifluoromethyl-phenyl)-vinyl]-biphenyl-3-yl}-pentanoic acid], the inhibition at 1 µM worked out at 46%. As for `CC(C)CC(C(=O)O)c1cc(C#Cc2cc(F)cc(F)c2)cc(-c2ccc(C(F)(F)F)cc2)c1` (centres unmarked) [Compound 10, 2-[5-(3,5-Difluoro-phenylethynyl)-4′-trifluoromethyl-biphenyl-3-yl]-4-methyl-pentanoic acid], the inhibition at 1 µM is 53%. `Cc1ccc(/C=C/c2cc(-c3ccc(C(F)(F)F)cc3)cc(C(CC(C)C)C(=O)O)c2)cc1` (centres unmarked) [Compound 16, 4-Methyl-2-[5-(2-p-tolyl-vinyl)-4′-trifluoromethyl-biphenyl-3-yl]-pentanoic acid]: the EC50 was 660 nM. Turning to `CC(C)CC(C(=O)O)c1cc(/C=C\c2ccc(Cl)cc2)cc(-c2ccc(C(F)(F)F)cc2)c1` (centres unmarked) [Compound 21, 2-{5-[2-(4-Chloro-phenyl)-vinyl]-4′-trifluoromethyl-biphenyl-3-yl}-4-methyl-pentanoic acid], the inhibition at 1 µM is 34%. `COc1ccc(/C=C/c2cc(-c3ccc(C(F)(F)F)cc3)cc(C(CC(C)C)C(=O)O)c2)cc1` (centres unmarked) [Compound 20, 2-{5-[2-(4-Methoxy-phenyl)-vinyl]-4′-trifluoromethyl-biphenyl-3-yl}-4-methyl-pentanoic acid]: the EC50 turned out to be 610 nM.

Consider `CC(C)CC(C(=O)O)c1cc(C(=O)c2ccc(C#N)cc2)cc(-c2ccc(C(F)(F)F)cc2)c1` (centres unmarked) [Compound 8, 2-[5-(4-Cyano-benzoyl)-4′-trifluoromethyl-biphenyl-3-yl]-4-methyl-pentanoic acid], for which the inhibition at 1 µM was found to be 25%.

As for `Cc1ccc(CCc2cc(-c3ccc(C(F)(F)F)cc3)cc(C(CC(C)C)C(=O)O)c2)cc1` (centres unmarked) [Compound 28, 4-Methyl-2-[5-(2-p-tolyl-ethyl)-4′-trifluoromethyl-biphenyl-3-yl]-pentanoic acid], the EC50 was 350 nM.

For `CC(C)CC(C(=O)O)c1cc(Cc2cc(Cl)cc(Cl)c2)cc(-c2ccc(C(F)(F)F)cc2)c1` (centres unmarked) [Compound 2, 2-[5-(3,5-Dichloro-benzyl)-4′-trifluoromethyl-biphenyl-3-yl]-4-methyl-pentanoic acid], the EC50 was found to be 570 nM.

For `CC(C)CC(C(=O)O)c1cc(CCc2ccc(C(F)(F)F)cc2)cc(-c2ccc(C(F)(F)F)cc2)c1` (centres unmarked) [Compound 25, 4-Methyl-2-{4′-trifluoromethyl-5-[2-(4-trifluoromethyl-phenyl)-ethyl]-biphenyl-3-yl}-pentanoic acid], the EC50 is 670 nM. For the compound `CC(C)CC(C(=O)O)c1cc(/C=C/c2ccc(C(F)(F)F)cc2)cc(-c2ccc(C(F)(F)F)cc2)c1` (centres unmarked) [Compound 15, 4-Methyl-2-{4′-trifluoromethyl-5-[2-(4-trifluoromethyl-phenyl)-vinyl]-biphenyl-3-yl}-pentanoic acid], the EC50 came to 400 nM. Consider `CC(C)CC(C(=O)O)c1cc(/C=C/c2ccc(Cl)cc2)cc(-c2ccc(C(F)(F)F)cc2)c1` (centres unmarked) [Compound 17, 2-{5-[2-(4-Chloro-phenyl)-vinyl]-4′-trifluoromethyl-biphenyl-3-yl}-4-methyl-pentanoic acid], for which the EC50 worked out at 360 nM. Take `CC(C)CC(C(=O)O)c1cc(C(=O)c2cc(Cl)cc(Cl)c2)cc(-c2ccc(C(F)(F)F)cc2)c1` (centres unmarked) [Compound 1, 2-[5-(3,5-Dichloro-benzoyl)-4′-trifluoromethyl-biphenyl-3-yl]-4-methyl-pentanoic acid]: the EC50 came to 710 nM. Same read-out and setting: under `CC(C)CC(C(=O)O)c1cc(/C=C/c2ccc(-c3ccccc3)cc2)cc(-c2ccc(C(F)(F)F)cc2)c1` (centres unmarked) [Compound 14, 2-[5-(2-Biphenyl-4-yl-vinyl)-4′-trifluoromethyl-biphenyl-3-yl]-4-methyl-pentanoic acid] stands 150 nM; under `CC(C)CC(C(=O)O)c1cc(Cc2ccc(F)cc2F)cc(-c2ccc(C(F)(F)F)cc2)c1` (centres unmarked) [Compound 3, 2-[5-(2,4-Difluoro-benzyl)-4′-trifluoromethyl-biphenyl-3-yl]-4-methyl-pentanoic acid], 2170 nM. For the compound `CC(C)CC(C(=O)O)c1cc(C#Cc2ccc(Cl)cc2)cc(-c2ccc(C(F)(F)F)cc2)c1` (centres unmarked) [Compound 12, 2-[5-(4-Chloro-phenylethynyl)-4′-trifluoromethyl-biphenyl-3-yl]-4-methyl-pentanoic acid], the inhibition at 1 µM worked out at 18%. Consider `CC(C)CC(C(=O)O)c1cc(/C=C/c2cc(C(F)(F)F)cc(C(F)(F)F)c2)cc(-c2ccc(C(F)(F)F)cc2)c1` (centres unmarked) [Compound 23, 2-{5-[2-(3,5-Bis-trifluoromethyl-phenyl)-vinyl]-4′-trifluoromethyl-biphenyl-3-yl}-4-methyl-pentanoic acid], for which the inhibition at 1 µM was 72%.

With `CC(C)CC(C(=O)O)c1cc(C#Cc2ccc(C(F)(F)F)cc2)cc(-c2ccc(C(F)(F)F)cc2)c1` (centres unmarked) [Compound 11, 4-Methyl-2-[4′-trifluoromethyl-5-(4-trifluoromethyl-phenylethynyl)-biphenyl-3-yl]-pentanoic acid], the inhibition at 1 µM is 10%. Consider `CC(C)CC(C(=O)O)c1cc(Cc2cc(F)cc(F)c2)cc(-c2ccc(C(F)(F)F)cc2)c1` (centres unmarked) [Compound 6, 2-[5-(3,5-Difluoro-benzyl)-4′-trifluoromethyl-biphenyl-3-yl]-4-methyl-pentanoic acid], for which the EC50 was 740 nM.

The record behind these values is US8692017B2, “Carbon linked modulators of gamma-secretase” (Janssen Pharmaceutica, N.V., priority 2007, dated 2014).
